± gives the standard deviation of the averaged measurements.
How the values were obtained:
Assay in all cases: level (log10 ratio to DMSO vehicle control); higher = higher biomarker level / cell amount than vehicle control
Perfluorononanoic acid = compound: O=C(O)C(F)(F)C(F)(F)C(F)(F)C(F)(F)C(F)(F)C(F)(F)C(F)(F)C(F)(F)F [Perfluorononanoic acid] (in DMSO)
Experimental: (§1)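 BioMAP Diversity Plus panel of 12 human primary cell co-culture systems (3C, 4H, LPS, SAg, BT, BF4T, BE3C, CASM3C, HDF3CGF, KF3CT, MyoF, Mphg). Compounds were added 1 h before stimulation and left for 24 h (MyoF 48 h; BT 72 h for soluble read-outs or 6 d for IgG). Biomarkers were read by ELISA, cytotoxicity by SRB, PBMC viability and proliferation by Alamar Blue. Each well value was divided by the mean of 8 DMSO control wells on the same plate and log10 transformed; duplicate blinded samples were tested at 4 concentrations.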

[1] = compound: C=C(C)C(=O)OCCC(F)(F)C(F)(F)C(F)(F)C(F)(F)C(F)(F)C(F)(F)C(F)(F)C(F)(F)F [8:2 Fluorotelomer methacrylate] (in DMSO)
Experimental: as §1

[2] = compound: OCCC(F)(F)C(F)(F)C(F)(F)C(F)(F)F [4:2 Fluorotelomer alcohol] (in DMSO)
Experimental: as §1

[3] = compound: O=C(O)C(F)(OC(F)(F)C(F)(OC(F)(F)C(F)(OC(F)(F)C(F)(F)C(F)(F)F)C(F)(F)F)C(F)(F)F)C(F)(F)F [Perfluoro-(2,5,8-trimethyl-3,6,9-trioxadodecanoic)acid] (in DMSO)
Experimental: as §1

[4] = compound: CN(C(=O)C(F)(F)C(F)(F)C(F)(F)F)[Si](C)(C)C [N-Methyl-N-trimethylsilylheptafluorobutyramide] (in DMSO)
Experimental: as §1

[5] = compound: O=C(O)C(F)(F)OC(F)(F)C(F)(F)OC(F)(F)C(F)(F)OC(F)(F)C(F)(F)C(F)(F)C(F)(F)F [Perfluoro-3,6,9-trioxatridecanoic acid] (in DMSO); conditions: 6700 nM
Experimental: as §1

[6] = compound: O=C(O)C(F)(F)C(F)(F)C(F)(F)OC(F)(F)F [Perfluoro(4-methoxybutanoic) acid] (in DMSO)
Experimental: as §1

[7] = compound: O=S(=O)(O)C(F)(F)C(F)(F)OC(F)(F)C(F)(F)F [Perfluoro(2-ethoxyethane)sulfonic acid] (in DMSO)
Experimental: as §1

Test System | level (log10) (Perfluorononanoic acid; 6700 nM) | level (log10) (Perfluorononanoic acid; 20000 nM) | level (log10) ([1]; 6700 nM) | level (log10) ([1]; 20000 nM) | level (log10) ([2]; 6700 nM) | level (log10) ([2]; 20000 nM) | level (log10) ([2]; 60000 nM) | level (log10) ([3]; 1100 nM) | level (log10) ([3]; 3300 nM) | level (log10) ([3]; 10000 nM) | level (log10) ([4]; 6700 nM) | level (log10) ([4]; 20000 nM) | level (log10) ([4]; 60000 nM) | level (log10) [5] | level (log10) ([6]; 6700 nM) | level (log10) ([6]; 20000 nM) | level (log10) ([6]; 60000 nM) | level (log10) ([7]; 6700 nM) | level (log10) ([7]; 20000 nM) | level (log10) ([7]; 60000 nM)
HDF3CGF:CD106/VCAM-1 | -0.02 ± 0.034 | -0.0225 ± 0.022 | -0.0105 ± 0.013 | -0.052 ± 0.064 | -0.023 ± 0.014 | 0.014 ± 0.035 | -0.062 ± 0.057 | 0.001 ± 0.017 | -0.03 ± 0.021 | -0.0385 ± 0.07 | -0.0155 ± 0.0092 | -0.0165 ± 0.0021 | -0.024 ± 0.0028 | -0.479 ± 0.037 | -0.01 ± 0.027 | -0.0185 ± 0.011 | -0.036 ± 0.059 | -0.01 ± 0.05 | -0.0365 ± 0.09 | -0.016 ± 0.073
lMphg:M-CSF | -0.0215 ± 0.0064 | -0.006 ± 0.031 | -0.013 ± 0.018 | -0.0365 ± 0.022 | -0.021 ± 0.017 | -0.003 ± 0.018 | -0.0025 ± 0.039 | -0.0095 ± 0.00071 | -0.0065 ± 0.022 | 0.0145 ± 0.021 | -0.033 ± 0.014 | -0.018 ± 0.025 | -0.0045 ± 0.0064 | 0.023 ± 0.0071 | -0.0095 ± 0.0078 | -0.019 ± 0.011 | -0.0115 ± 0.0064 | 0.0025 ± 0.0092 | -0.011 ± 0.0028 | -0.011 ± 0.0071
CASM3C:CCL2/MCP-1 | -0.0295 ± 0.049 | -0.0085 ± 0.054 | -0.011 ± 0.0099 | 0.0025 ± 0.037 | -0.023 ± 0.038 | -0.0055 ± 0.039 | -0.008 ± 0.05 | 0 ± 0.0042 | -0.008 ± 0.0028 | 0.0055 ± 0.005 | -0.0115 ± 0.0064 | -0.001 ± 0.02 | 0.0165 ± 0.013 | -0.0045 ± 0.023 | -0.01 ± 0.011 | -0.008 ± 0.0057 | 0.017 ± 0.031 | -0.003 ± 0.024 | -0.013 ± 0.0071 | -0.0115 ± 0.036
3C:CCL2/MCP-1 | -0.014 ± 0.038 | -0.0045 ± 0.016 | 0.0115 ± 0.012 | 0.009 ± 0.0014 | -0.0545 ± 0.074 | -0.0225 ± 0.044 | 0.032 ± 0.011 | -0.0075 ± 0.0035 | -0.0195 ± 0.00071 | 0.001 ± 0.034 | -0.009 ± 0.014 | -0.0075 ± 0.0064 | 0.0005 ± 0.016 | 0.0155 ± 0.021 | -0.012 ± 0.0028 | -0.006 ± 0.0028 | 0.031 ± 0.041 | -0.022 ± 0.03 | -0.014 ± 0.014 | -0.0095 ± 0.019
MyoF:Collagen III | -0.004 ± 0.0071 | -0.0355 ± 0.018 | -0.029 ± 0.017 | -0.005 ± 0.028 | -0.011 ± 0.038 | 0.007 ± 0.042 | 0.0245 ± 0.032 | -0.008 ± 0.021 | 0.0155 ± 0.00071 | 0.006 | 0.006 ± 0.0028 | 0.007 ± 0.0028 | -0.003 ± 0.0085 | -0.894 ± 0.12 | -0.006 ± 0.0071 | 0.0015 ± 0.015 | 0.008 ± 0.0057 | -0.0035 ± 0.0092 | -0.005 ± 0.0071 | 0.0105 ± 0.012
CASM3C:IL-6 | -0.016 ± 0.035 | -0.016 ± 0.024 | -0.0315 ± 0.022 | 0.0105 ± 0.084 | -0.0195 ± 0.005 | -0.023 ± 0.0099 | -0.016 ± 0.054 | -0.016 ± 0.048 | -0.0155 ± 0.043 | -0.0125 ± 0.018 | -0.0165 ± 0.0035 | -0.0105 ± 0.0035 | 0.0035 ± 0.049 | -0.0055 ± 0.061 | -0.0215 ± 0.015 | -0.0205 ± 0.016 | -0.001 ± 0.031 | -0.024 ± 0.0028 | -0.041 ± 0.033 | -0.0725 ± 0.015
BE3C:uPA | -0.0445 ± 0.08 | -0.0195 ± 0.076 | -0.0145 ± 0.012 | -0.0145 ± 0.059 | -0.032 ± 0.065 | -0.014 ± 0.058 | 0.014 ± 0.027 | 0.0025 ± 0.0064 | -0.011 ± 0.0014 | -0.0025 ± 0.019 | 0.0045 ± 0.032 | -0.0105 ± 0.026 | 0.015 ± 0.0071 | -0.349 ± 0.005 | -0.004 ± 0.017 | -0.0125 ± 0.012 | 0.0035 ± 0.005 | -0.0015 ± 0.022 | -0.0145 ± 0.039 | -0.004 ± 0.023
